Test results reported in the PolyMetriX glass transition set.
± gives the standard deviation of the reports.

| glass transition temperature [°C] | SMILES |
| --- | --- |
| 320.00 | *C(=O)c1ccc2c(c1)C(=O)N(c1ccc(C3(C)CC(C)(C)c4ccc(N5C(=O)c6ccc(*)cc6C5=O)cc43)cc1)C2=O (repeat unit) |
| 200.00 | *OC(=O)Nc1ccc(Cc2ccc(NC(=O)OC3CC4CC(*)CC(C3)O4)cc2)cc1 (repeat unit) |
| 120.00 | */C=C/C1CC(*)C(C#N)([Si](C)(C)[Si](C)(C)C)C1 (repeat unit) |
| 152.00 | *C(=O)NCC(C)(C)CNC(=O)c1ncn(C)c1* (repeat unit) |
| 177.00 | *CCCCCNC(=O)c1ccc(C(=O)N*)cc1 (repeat unit) |
| -66.00 | *CCOCCOC(=O)CCCCCCC(=O)O* (repeat unit) |
| 200.00 | */C(=C(/*)c1cccc([Si](C)(C)C)c1)c1ccccc1 (repeat unit) |
| 100.00 | *CC(O)CN(CC(O)COc1ccc(C(C)(C)c2ccc(O*)cc2)cc1)c1ccc(C#N)cc1 (repeat unit) |
| 235.00 | *C(=O)c1ccc2c(c1)C(=O)N(c1cccc(C(O[Si](C)(C)O[Si](C)(C)O[Si](C)(C)C)c3cccc(N4C(=O)c5ccc(*)cc5C4=O)c3)c1)C2=O (repeat unit) |
| 110.00 | *=Nc1ccc(Cc2ccc(NC(=*)CCC)cc2)cc1 (repeat unit) |
| 47.00 | *CC(*)OCCOc1ccc(/C=C(\C#N)C(=O)OC)cc1 (repeat unit) |
| 219.00 | *c1cccc(C(O[Si](C)(C)O[Si](C)(C)O[Si](C)(C)C)c2cccc(N3C(=O)c4ccc(Oc5ccc6c(c5)C(=O)N(*)C6=O)cc4C3=O)c2)c1 (repeat unit) |
| 192.00 | *Oc1ccc(Oc2ccc(Oc3ccc(S(=O)(=O)c4ccc(*)cc4)cc3)cc2)cc1 (repeat unit) |
| 150.00 | *Oc1ccc(C2(c3ccc(OC(=O)CCCCC(*)=O)cc3)c3cc(N(C)C)ccc3-c3ccc([N+](=O)[O-])cc32)cc1 (repeat unit) |
| 118.00 | *Oc1ccc(Oc2ccc(OC(*)=O)cc2)cc1 (repeat unit) |
| -8.00 | *CC(*)(CC(=O)OCCCc1ccccc1)C(=O)OCCCc1ccccc1 (repeat unit) |
| 354.50 | *c1ccc(-c2cc(C(C)(C)C)c(Oc3ccc(N4C(=O)c5ccc(S(=O)(=O)c6ccc7c(c6)C(=O)N(*)C7=O)cc5C4=O)cc3)c(C(C)(C)C)c2)cc1 (repeat unit) |
| 230.00 | *Oc1ccc(S(=O)(=O)c2ccc(Oc3ccc(C4(c5ccc(*)cc5)CCCC4)cc3)cc2)cc1 (repeat unit) |
| 231.00 | *c1ccc(Oc2ccc(NC(=O)c3cccc(Oc4ccc5c(c4)C(=O)N(*)C5=O)c3)cc2)cc1 (repeat unit) |
| 138.00 | *Oc1ccc(C(C)(C)c2ccc(OC(*)=O)c(Cl)c2)cc1C (repeat unit) |

| glass transition temperature [°C] | SMILES |
| --- | --- |
| 306.00 | *c1ccc(-c2cnc3ccc(Oc4ccc5ncc(*)nc5c4)cc3n2)cc1 (repeat unit) |
| 285.00 | *c1c(C)cc(-c2cc(C)c(N3C(=O)c4ccc(-c5ccc6c(c5)C(=O)N(*)C6=O)cc4C3=O)c(C)c2)cc1C (repeat unit) |
| 56.90 | *Oc1ccc(Cc2ccc(OC(=O)OCC3CCC(COC(*)=O)CC3)cc2)cc1 (repeat unit) |
| 226.00 | *c1ccc(Oc2cccc(N3C(=O)c4ccc(Oc5cc6ccccc6cc5Oc5ccc6c(c5)C(=O)N(*)C6=O)cc4C3=O)c2)cc1 (repeat unit) |
| 46.00 | *OC(=O)C(C)NC(=O)CCCCCCCC(=O)NC(C)C(=O)OC1COC2C(*)COC12 (repeat unit) |
| 138.80 | *CCN(CCOC(=O)OCc1ccc(COC(=O)O*)cc1)c1ccc(/N=N/c2ccc([N+](=O)[O-])cc2)cc1 (repeat unit) |
| -98.00 | *O[Si](C)(C)O[Si](C)(C)O[Si](C)(C)O[Si](C)(C)OC(C)CCCCC(*)C (repeat unit) |
| 156.00 | *c1ccc(Sc2cc3c(cc2Sc2ccc(N4C(=O)c5ccc(Oc6ccc7c(c6)C(=O)N(*)C7=O)cc5C4=O)cc2)C(=O)N(CCCCCCCCCCCCCCCC)C3=O)cc1 (repeat unit) |
| 18.00 | *CCCCCCC(c1ccc(O)cc1)C(*)c1ccc(O)cc1C (repeat unit) |
| 116.00 | *CCOCCOCCOc1cccc(NC(=O)c2ccc(C(=O)Nc3cccc(O*)c3)cc2)c1 (repeat unit) |
| 379.00 ± 21 | *c1ccc(-c2ccc(-n3c(=O)c4cc5c(=O)n(*)c(=O)c5cc4c3=O)cc2C(F)(F)F)c(C(F)(F)F)c1 (repeat unit) |
| 283.00 | *Oc1c(Br)cc(C2(c3cc(Br)c(OC(*)=O)c(Br)c3)CC3CCC2C3)cc1Br (repeat unit) |
| -1.00 | *C/C=C/C[Si](*)(C)CCCOc1ccc2ccccc2c1 (repeat unit) |
| 237.10 | *C(=O)c1ccc2c(c1)C(=O)N(c1ccc(Oc3ccc(Oc4ccc(N5C(=O)c6ccc(*)cc6C5=O)cc4C(F)(F)F)cc3)cc1)C2=O (repeat unit) |
| 71.00 | *C#Cc1ccccc1C#C[SiH](*)c1ccccc1 (repeat unit) |
| 23.00 | *Oc1ccc(CC(NC(=O)Cc2ccc(OC(=O)COCCOCC(*)=O)cc2)C(=O)OCCCCCCCC)cc1 (repeat unit) |
| 265.00 | *c1cccc(N2C(=O)c3ccc(Oc4ccc(S(=O)(=O)c5ccc(Oc6ccc7c(c6)C(=O)N(*)C7=O)cc5)cc4)cc3C2=O)c1 (repeat unit) |
| 188.00 | *c1ccc(Oc2cccc(Oc3ccc(N4C(=O)c5ccc(Oc6cccc(Oc7ccc8c(c7)C(=O)N(*)C8=O)c6)cc5C4=O)cc3)c2)cc1 (repeat unit) |
| 266.00 | *c1ccc(-c2ccc(N3C(=O)c4ccc(Oc5ccc(Oc6ccc7c(c6)C(=O)N(*)C7=O)cc5)cc4C3=O)cc2)cc1 (repeat unit) |
| 420.00 | */C=C(/*)c1ccc(-n2c(=O)c3cc4c(=O)n(-c5ccc(C#C)cc5)c(=O)c4cc3c2=O)cc1 (repeat unit) |

| SMILES | glass transition temperature [°C] |
| --- | --- |
| *COC(=O)OCC1OC(C)(C)OC1* (repeat unit) | 51.30 |
| *Oc1c(C)cc(*)cc1C(C)CCC (repeat unit) | 100.00 |
| *c1cc(C)c(*)s1 (repeat unit) | 114.20 |
| *CC(*)C(=O)OC1CCCCC1 (repeat unit) [Poly(cyclohexyl acrylate)] | 20.42 ± 6.5 |
| *Nc1cc(NC(=O)C(*)=O)ccc1C (repeat unit) | -54.6 |
| *C(=O)Nc1ccc(C(=O)c2ccc(NC(=O)c3ccc4c(c3)C(=O)N(c3cccc(P(=O)(c5ccccc5)c5cccc(N6C(=O)c7ccc(*)cc7C6=O)c5)c3)C4=O)cc2)cc1 (repeat unit) | 238.00 |
| *CC(*)CC1CCCC1 (repeat unit) | 60.00 |
| *CC(*)C(=O)Nc1cccc(Cl)c1 (repeat unit) | 70.00 |
| *CC(*)(C)C(=O)OC1CCC(C)CC1 (repeat unit) | 109.00 |
| *CC(*)c1ccc([Si](C)(C)O)cc1 (repeat unit) | 147.00 |
